Measurements published in patent US10857136B2, “Compounds for use in the prevention and/or treatment of non-alcoholic fat liver disease and non-alcoholic steatohepatitis” (SJT MOLECULAR RESEARCH, SL, priority 2017, dated 2020).

Legend:
[1] = test system: DIO-NASH mice (C57Bl/6J male mice); assay: Absolute and relative body weight, 8 weeks assay in DIO-NASH mice; type: in vivo; settings: 50 mg/kg, p.o., b.i.d., statistics at day 54, vs DIO-NASH vehicle
Protocol: The assay was carried out to evaluate the effect of the compounds of the invention on body weight of animals with non-alcoholic fat liver disease (DIO-NASH mice). For this assay, the effect of compound 4a in absolute and relative body weight was evaluated. DIO-NASH mice (C57Bl/6J male mice) were treated with a hydrochloride salt of compound 4a during 8 weeks (50 mg/kg, p.o., b.i.d.), versus a pathological control of DIO-NASH mice and a non-pathological control LEAN-CHOW mice, both treated with the vehicle (0.9% NaCl). The DIO-NASH mice group were put on high fat diet (40% AMLN diet, D09100301 Research Diets, USA) and a control group (LEAN-CHOW) was put on a regular chow diet (Altromin 1324, Brogaarden, Denmark) for 35 weeks prior to the study.
Body weight of for each of the groups taken on a daily basis. The animals were kept under the same conditions were used as in example 2.2.

[2] = test system: DIO-NASH mice (C57Bl/6J male mice); assay: Liver inflammation: galectin-3 IHC staining in DIO-NASH mice; type: in vivo; settings: 50 mg/kg, p.o., b.i.d., 8 weeks
Protocol: To assess the effect of the compounds of the invention in inflammation of liver in the treatment of non-alcoholic fat liver disease, liver galactin-3 (inflammation marker) levels were determined after a 8 weeks study where DIO-NASH mice (C57Bl/6J male mice) were treated with a hydrochloride salt of compound 4a during 8 weeks (50 mg/kg, p.o., b.i.d.), versus a pathological control of DIO-NASH mice and a non-pathological control LEAN-CHOW mice, both treated with the vehicle (0.9% NaCl).
Galectin-3 was measured via galtactin-3 IHC staining: galectin-3 (Biolegend, Cat. #125402) IHC were performed using standard procedures. Briefly, after antigen retrieval and blocking of endogenous peroxidase activity, slides were incubated with primary antibody. The primary antibody was detected using a linker secondary antibody followed by amplification using a polymeric HRP-linker antibody conjugate. Next, the primary antibody was visualized with DAB as chromogen. Finally, sections were counterstained in hematoxylin and cover-slipped.

COc1ccc(-c2nc(C(=O)NCCN)cc3c2[nH]c2ccccc23)cc1 [Compound 4a, N(-ethylamine)-1-benzosubstituted-β-carboline-3-carboxamide]
absolute body weight [1]: reduced body weight
relative body weight versus the body weight at the start of the treatment (day 0 is 100%) [1]: reduced relative body weight significantly
anti-galectin-3 staining, representative images of liver samples ([2]; end of study): visible change in this inflammation marker
total liver galectin-3 content determined by morphometry ([2]; vs DIO-NASH vehicle): reduced total galectin-3 content
